Test results published in patent publication US6521268B2, “Antibacterial and anti-inflammatory compositions with Inula helenium L. extract and water soluble chitosan” (Jakwang Co., Ltd., priority 2001, dated 2003).

Tested on: inflammation induced by methyl nicotinate, inner part of the upper arm
Test: Anti-inflammatory effect test (anti-inflammation assay), chromameter "a" value
Format: in vivo, human
Experimental: The anti-inflammatory effect of the natural cell control carrier comprising 3:1 (wt/wt) water-soluble chitosan and elecampane extract according to the present invention was tested as follows. Twenty healthy male and female subjects with no experience of drug hypersensitivity or drug side effect were selected. Methyl nicotinate was used as an inflammation-inducing material. […] Firstly, the initial “a” value of the inner part of the upper arm was determined with a chromameter (Minolta, CR-300). Then, 1.0% aqueous solution of said composition and 0.1% indometacin aqueous solution were closely patched at the test part for 4 hr. After removing the patch, the test part was washed with pure water. After waiting for 1 hr for the temporary inflammation reaction to disappear, “a” value was measured again with the chromameter. After dropping 80 μL of methyl nicotinate diluted to 3 mM with pure water in a filter paper disk with 1 cm of diameter, it was applied to each test part for 1-2 min. After removing the filter paper disk, each test part was washed sufficiently with pure water. After 30 min, “a” value was measured with the chromameter. The anti-inflammatory effect of the natural cell control carrier according to the present invention, indometacin and methyl nicotinate was calculated from the “a” values.

**Q.** `COc1ccc2c(c1)c(CC(=O)O)c(C)n2C(=O)c1ccc(Cl)cc1` [indometacin] was tested. Which “Anti-Inflammatory Effect (%)” value (calculated from "a" values, 1.0% carrier or 0.1% indometacin aqueous solution) did it give?
**A.** Its value is 41.14%.

**Q.** What about the “"a" Value (n = 20)” value (chromameter, 30 min after 3 mM methyl nicotinate, 4 hr patch pre-treatment (1.0% carrier or 0.1% indometacin aqueous solution)) of the same molecule?
**A.** Its value is 6.38.
